In patent publication US20040242538A1, “Method to improve complexation efficacy and produce high-energy cylodextrincomplexes” (priority 2001, published 2004):
Values after ≈ are worked out from the molar mass of the structure shown.

Columns and labels:
[1] = Stability of the drug in complexes during heating in the vacuum oven (HPLC); format: physicochemical; settings: complexes heated at 90° C. for several days
Procedure: All solutions were lyophilized, then the obtained complex was sieved through a 300 μm sieve and heated in a vacuum oven at 60-90° C. for several days, depending on the drug being investigated.
The amount of drug per gram sample was determined on a high performance liquid chromatographic (HPLC) component system, consisting of ConstaMetric 3200 solvent delivery system operated at 1.5 ml/min, a SpectroMonitor 3200 UV/VIS variable-wavelength detector, a Merck-Hitachi AS-2000A autosampler, Merck Hitachi D-2500 Chromato-Integrator and a Phenomex ODS 5 μm (150×4.6 mm) column.
Selected Basic drug A complexes were analysed after heating in the vacuum oven at 90° C. for several days.

physchem = settings: pH 7.4, aqueous buffer, thermodynamic from solid
Procedure: To investigate this special property of the complexes, 50 mg of complex containing the basic drug was dissolved in 25 ml of phosphate buffer 0.1 M, pH 7.4. 100 μl samples were taken from this solution and measured for 1-96 hours depending on the complex being investigated. […] Solid drug particles with and without cyclodextrin were also weighed and placed in the buffer to show the difference in solubility between samples of the drug alone, drug and cyclodextrin in a standard mixture, and drug in complex with cyclodextrin.
The solid complexes were heated in a vacuum oven for 4 days at 88° C. and 0.13×10^2 Pa. Each complex contained about 0.2 equivalents of acetic acid. A 50 mg sample of each complex was dissolved in 25 ml of the buffer. […] 12 mg of solid Basic drug A particles were also dissolved in 50 ml of the buffer with or without 38 mg of HPβCD to show the effect of complexing.

Question: Which “stability during heating in the vacuum oven” value [1] does the source give for `Cc1ccc(N2CCN(C)CC2)c2c1CC[C@@H](NC(=O)c1ccc(N3CCOCC3)cc1)C2` [Basic drug A, (R)-N-[5-methyl-8-(4-methylpiperazin-1-yl)-1,2,3,4-tetrahydro-2-naphthyl]-4-morpholinobenzamide] here?
Answer: stable during heating in the vacuum oven

Question: And the solubility (physchem)?
Answer: 34 µg/mL (≈ 75.8 µM)
